Experimental data taken from patent US7517996B2, “Azole compound” (Ajinomoto Co., Inc., priority 2003, dated 2009).

Assay: Inhibition of LPA-induced intracellular Ca2+ concentration increase (FLIPR)
Format: cell-based
Details: LPA final concentration 5 μM; rat hepatic stellate cell derived myofibroblast like clone; Fluo-3, FLIPR
Source text: (1) Establishment of Myofibroblast Like Cell Strain Derived from Rat Hepatic Stellate Cell Fraction A stellate cell fraction was obtained from the liver of male Wistar rat according to a conventional method (European J. Biochem., 1993, vol. 213, p. 815). After subculture for several generations, the cell was cloned by limiting dilution. Well grown 24 clones that formed colonies were isolated. These clones were stained with αSMA antibody and confirmed to be all positive and to have Myofibroblast like properties. […] (2) Measurement of Cell Activation (Intracellular Ca^2+ Concentration Increasing Action)-Inhibitory Activity The above-mentioned cells were cultured overnight in a 384 well plate at 24,000 cells/well and the medium was removed. An assay buffer (0.1% BSA, 20 mM HEPES, 1×HBSS, 2.5 mM Probenecid) containing 4 μM of Fluo-3, AM (Biotium) was added, and the cells were stained at 37° C. for 1 hour. Following the buffer containing the dye reagent was removed, and an assay buffer was added, intracellular Ca^2+ concentration was measured with FLIPR (Molecular Devices). Adding a test substance and LPA at the final concentration of 5 μM, the inhibitory action of the test substance on the increase in the intracellular Ca^2+ concentration by LPA was examined. The increase in the intracellular Ca^2+ concentration by LPA addition without test substance was taken as 100%, that without the addition of LPA was taken as 0%, and the substrate's concentration (IC50) at inhibiting increase in the intracellular Ca^2+ concentration by 50% was determined.

| SMILES | IC50 |
| --- | --- |
| CC(OC(=O)Nc1conc1-c1ccc(CS(=O)(=O)CCC(=O)O)cc1)c1ccccc1Cl (stereo not drawn) [Compound 11, 3-(4-{4-[1-(2-chlorophenyl)ethoxycarbonylamino]-3-isoxazolyl}benzylsulfonyl)propionic acid] | 115 nM |
| CC(OC(=O)Nc1conc1-c1ccc(CSCCS(=O)(=O)O)cc1)c1ccccc1Cl (stereo not drawn) [Compound 5, 2-(4-{4-[1-(2-chlorophenyl)ethoxycarbonylamino]-3-isoxazolyl}benzylsulfanyl)ethanesulfonic acid] | 74 nM |
| CC(OC(=O)Nc1conc1-c1ccc(CCC(C)(C)CC(=O)O)cc1)c1ccccc1Cl (stereo not drawn) [Compound 33, 5-(4-{4-[1-(2-chlorophenyl)ethoxycarbonylamino]-3-isoxazolyl}phenyl)-3,3-dimethylpentanoic acid] | 119 nM |
| CC(OC(=O)Nc1conc1-c1ccc(CS(=O)(=O)CCC(=O)O)cc1)C1=C(Cl)CCCC1 (stereo not drawn) [Compound 13, 3-(4-{4-[1-(2-chloro-1-cyclohexenyl)ethoxycarbonylamino]-3-isoxazolyl}benzylsulfonyl)propionic acid] | 104 nM |
| C[C@@H](OC(=O)Nc1conc1-c1ccc(CS(=O)(=O)CCC(=O)O)cc1)c1ccccc1Br [Compound 12, 3-(4-{4-[(1R)-1-(2-bromophenyl)ethoxycarbonylamino]-3-isoxazolyl}benzylsulfonyl)propionic acid] | 68 nM |
| CC(OC(=O)Nc1conc1-c1ccc(NC(=O)CCC(=O)O)cc1)c1ccccc1Cl (stereo not drawn) [Compound 25, 4-[(4-{4-[1-(2-chlorophenyl)ethoxycarbonylamino]-3-isoxazolyl}phenyl)amino]-4-oxobutanoic acid] | 73 nM |
| C[C@@H](OC(=O)Nc1conc1-c1ccc(CSCCC(=O)O)cc1)c1ccccc1Br [Compound 6, 3-(4-{4-[(1R)-1-(2-bromophenyl)ethoxycarbonylamino]-3-isoxazolyl}benzylsulfanyl)propionic acid] | 22 nM |
| CC(OC(=O)Nc1conc1-c1ccc(NC(=O)C[C@@H](O)C(=O)O)cc1)c1ccccc1Cl (stereo partly drawn) [Compound 21, 4-[(4-{4-[1-(2-chlorophenyl)ethoxycarbonylamino]-3-isoxazolyl}phenyl)amino]-(2R)-2-hydroxy-4-oxobutanoic acid] | 84 nM |
| CC(=O)N[C@@H](CSCc1ccc(-c2nocc2NC(=O)OC(C)c2ccccc2Cl)cc1)C(=O)O (stereo partly drawn) [Compound 4, N-acetyl-S-(4-{4-[1-(2-chlorophenyl)ethoxycarbonylamino]-3-isoxazolyl}benzyl)-L-cysteine] | 65 nM |
| C[C@@H](OC(=O)Nc1conc1-c1ccc(CSCCC(=O)O)cc1)c1ccccc1Cl [Compound 3, 3-(4-{4-[(1R)-1-(2-chlorophenyl)ethoxycarbonylamino]-3-isoxazolyl}benzylsulfanyl)propionic acid] | 22 nM |
| C[C@@H](OC(=O)Nc1conc1-c1ccc(CCSCCC(=O)O)cc1)c1ccccc1Cl [Compound 29, {3-[2-(4-{4-[(1R)-1-(2-chlorophenyl)ethoxycarbonylamino]-3-isoxazolyl}phenyl)ethyl]thio}propionic acid] | 29 nM |
| CC(OC(=O)Nc1conc1-c1ccc(CSCCC(=O)O)cc1)C1=C(Cl)CCC1 (stereo not drawn) [Compound 8, 3-(4-{4-[1-(2-chloro-1-cyclopentenyl)ethoxycarbonylamino]-3-isoxazolyl}benzylsulfanyl)propionic acid] | 29 nM |
| CC(OC(=O)Nc1conc1-c1ccc(COC(=O)NCCC(=O)O)cc1)c1ccccc1Cl (stereo not drawn) [Compound 20, 3-(4-{4-[1-(2-chlorophenyl)ethoxycarbonylamino]-3-isoxazolyl}benzyloxycarbonylamino)propionic acid] | 83 nM |
| CC(OC(=O)Nc1conc1-c1ccc(CCSCCC(=O)O)cc1)c1ccccc1Cl (stereo not drawn) [Compound 15, {3-[2-(4-{4-[1-(2-chlorophenyl)ethoxycarbonylamino]-3-isoxazolyl}phenyl)ethyl]thio}propionic acid] | 44 nM |
| CC(=O)Oc1ccc(-c2nocc2NC(=O)OC(C)c2ccccc2Cl)cc1 (stereo not drawn) [Compound 22, 4-[4-({[1-(2-chlorophenyl)ethoxy]carbonyl}amino)-3-isoxazolyl]phenyl acetate] | 140 nM |
| CC(CCCc1ccc(-c2nocc2NC(=O)O[C@H](C)c2ccccc2Cl)cc1)C(=O)O (stereo partly drawn) [Compound 34, 5-(4-{4-[(1R)-1-(2-chlorophenyl)ethoxycarbonylamino]-3-isoxazolyl}phenyl)-2-methylpentanoic acid] | 102 nM |
| CC(OC(=O)Nc1conc1-c1ccc(CCSCC(=O)O)cc1)C1=C(Cl)CCC1 (stereo not drawn) [Compound 16, {[2-(4-{4-[1-(2-chlorocyclopentenyl)ethoxycarbonylamino]-3-isoxazolyl}phenyl)ethyl]thio}acetic acid] | 32 nM |

| SMILES | IC50 |
| --- | --- |
| CC(OC(=O)Nc1conc1-c1ccc(CSCCC(=O)O)cc1)C1=C(Cl)CCCC1 (stereo not drawn) [Compound 10, 3-(4-{4-[1-(2-chloro-1-cyclohexenyl)ethoxycarbonylamino]-3-isoxazolyl}benzylsulfanyl)propionic acid] | 56 nM |
| CC(OC(=O)Nc1conc1-c1ccc(CCCCC(=O)O)cc1)c1ccccc1Cl (stereo not drawn) [Compound 19, 5-(4-{4-[1-(2-chlorophenyl)ethoxycarbonylamino]-3-isoxazolyl}phenyl)-4-pentanoic acid] | 47 nM |
| C[C@@H](OC(=O)Nc1conc1-c1ccc(CCCCC(=O)O)cc1)c1ccccc1Cl [Compound 31, 5-(4-{4-[(1R)-1-(2-chlorophenyl)ethoxycarbonylamino]-3-isoxazolyl}phenyl)-4-pentanoic acid] | 76 nM |
| C[C@@H](OC(=O)Nc1conc1-c1ccc(CS(=O)(=O)CCC(=O)O)cc1)c1ccccc1Cl [Compound 28, 3-(4-{4-[(1R)-1-(2-chlorophenyl)ethoxycarbonylamino]-3-isoxazolyl}benzylsulfonyl)propionic acid] | 36 nM |
| CC(OC(=O)Nc1cnoc1-c1ccc(CSCCC(=O)O)cc1)c1ccccc1Cl (stereo not drawn) [Compound 18, 3-(4-{4-[1-(2-chlorophenyl)ethoxycarbonylamino]-5-isoxazolyl}benzylsulfanyl)propionic acid] | 81 nM |
| C[C@@H](OC(=O)Nc1conc1-c1ccc(/C=C/CCC(=O)O)cc1)c1ccccc1Cl [Compound 30, 5-(4-{4-[(1R)-1-(2-chlorophenyl)ethoxycarbonylamino]-3-isoxazolyl}phenyl)-4-pentenoic acid] | 107 nM |
| CC(OC(=O)Nc1conc1-c1ccc(CCSCC(=O)O)cc1)c1ccccc1Cl (stereo not drawn) [Compound 14, {[2-(4-{4-[1-(2-chlorophenyl)ethoxycarbonylamino]-3-isoxazolyl}phenyl)ethyl]thio}acetic acid] | 146 nM |
| C[C@@H](OC(=O)Nc1conc1-c1ccc(CCSCC(=O)O)cc1)c1ccccc1Cl [Compound 27, {[2-(4-{4-[(1R)-1-(2-chlorophenyl)ethoxycarbonylamino]-3-isoxazolyl}phenyl)ethyl]thio}acetic acid] | 19 nM |
| CC(OC(=O)Nc1conc1-c1ccc(OCCCCC(=O)O)cc1)c1ccccc1Cl (stereo not drawn) [Compound 24, 5-(4-{4-[1-(2-chlorophenyl)ethoxycarbonylamino]-3-isoxazolyl}phenoxy)pentanoic acid] | 131 nM |
| CC(=O)O[C@H](CC(=O)Nc1ccc(-c2nocc2NC(=O)OC(C)c2ccccc2Cl)cc1)C(=O)O (stereo partly drawn) [Compound 26, (2R)-2-acetoxy-4-[(4-{4-[1-(2-chlorophenyl)ethoxy-carbonylamino]-3-isoxazolyl}phenyl)amino]-4-oxobutanoic acid] | 141 nM |
| CC(OC(=O)Nc1conc1-c1ccc(CCSCC(=O)O)cc1)C1=C(Cl)CCCC1 (stereo not drawn) [Compound 17, {[2-(4-{4-[1-(2-chlorocyclohexenyl)ethoxycarbonylamino]-3-isoxazolyl}phenyl)ethyl]thio}acetic acid] | 62 nM |
| CC(OC(=O)Nc1conc1-c1ccc(O)cc1)c1ccccc1Cl (stereo not drawn) [Compound 23, 1-(2-chlorophenyl)ethyl 3-(4-hydroxyphenyl)-4-isoxazolylcarbamate] | 116 nM |
| CC(=O)N[C@@H](CSCc1ccc(-c2nocc2NC(=O)O[C@H](C)c2ccccc2Br)cc1)C(=O)O [Compound 7, N-acetyl-S-(4-{4-[(1R)-1-(2-bromophenyl)-ethoxycarbonylamino]-3-isoxazolyl}benzyl)-L-cysteine] | 59 nM |
| CC(OC(=O)Nc1conc1-c1ccc(CSCCC(=O)O)cc1)c1ccccc1Cl (stereo not drawn) [Compound 2, 3-(4-{4-[1-(2-chlorophenyl)ethoxycarbonylamino]-3-isoxazolyl}benzylsulfanyl)propionic acid] | 51 nM |
| C[C@@H](OC(=O)Nc1conc1-c1ccc(CCCCCC(=O)O)cc1)c1ccccc1Cl [Compound 32, 6-(4-{4-[(1R)-1-(2-chlorophenyl)ethoxycarbonylamino]-3-isoxazolyl}phenyl)hexanoic acid] | 114 nM |
| C[C@@H](OC(=O)Nc1conc1-c1ccc(CSCCC(=O)O)cc1)C1=C(Cl)CCC1 [Compound 9, 3-(4-{4-[(1R)-1-(2-chloro-1-cyclopentenyl)ethoxycarbonyl-amino]-3-isoxazolyl}benzylsulfanyl)propionic acid] | 26 nM |
